Results taken from patent US10150737B2, “Compounds for controlling arthropods” (priority 2013, dated 2018).

Assays:
Lucilia cuprina = Lucilia cuprina test; format: in vivo; conditions: application rate 100 ppm; L1 larvae; after 2 days
Description: (§1) Solvent: dimethyl sulphoxide
(§2) To produce an appropriate active ingredient formulation, 10 mg of active ingredient are mixed with 0.5 ml of dimethyl sulphoxide, and the concentrate is diluted with water to the desired concentration.
About 20 L1 larvae of the Australian sheep blowfly (Lucilia cuprina) are transferred into a test vessel containing minced horsemeat and the active ingredient preparation of the desired concentration.
After 2 days, the kill in % is determined. 100% means that all the larvae have been killed; 0% means that none of the larvae have been killed.

Ctenocephalides felis [1] = experiment: Ctenocephalides felis - oral test; format: in vivo; conditions: application rate 100 ppm in citrated cattle blood; after 2 days
How it was run: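 Compound in DMSO diluted into citrated cattle blood, fed through a parafilm membrane to about 20 unfed adult cat fleas. Kill in % scored after 2 days (100% = all dead).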

Boophilus microplus = Boophilus microplus - injection test; format: in vivo; conditions: application rate 20 μg/animal; injection into engorged adult female ticks; after 7 days
How it was run: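 Active ingredient in DMSO, 1 μl injected into the abdomen of 5 engorged adult female ticks, then held in a climate-controlled room. Efficacy scored after 7 days from laying of fertile eggs, with non-fertile-looking eggs kept about 42 days for larval hatch; 100% means no fertile eggs.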

Tetranychus urticae = Tetranychus urticae - spray test, OP-resistant; format: in vivo; conditions: bean leaf discs, after 6 days
How it was run: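 Compound dissolved in acetone/DMF, diluted with water containing 1000 ppm alkylaryl polyglycol ether emulsifier to test concentrations. Bean leaf discs infested with all stages of spider mites were sprayed; % kill determined after 6 days (100% = all mites dead, 0% = none).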

Ctenocephalides felis [2] = experiment: Ctenocephalides felis - in vitro contact tests with adult cat fleas; format: in vivo; conditions: application rate 5 μg/cm2 (=500 g/ha); after 48 h; fleas dead or moribund
Description: For the coating of the test tubes, 9 mg of active ingredient are first dissolved in 1 ml of acetone p.a. and then diluted to the desired concentration with acetone p.a. 250 μl of the solution are distributed homogeneously on the inner walls and base of a 25 ml test tube by turning and rocking on an orbital shaker (rocking rotation at 30 rpm for 2 h). With 900 ppm active ingredient solution and internal surface area 44.7 cm^2, given homogeneous distribution, an area-based dose of 5 μg/cm^2 is achieved.
After the solvent has evaporated off, the tubes are populated with 5-10 adult cat fleas (Ctenocephalides felis), sealed with a perforated plastic lid and incubated in a horizontal position at room temperature and ambient humidity. After 48 h, efficacy is determined. To this end, the test tubes are stood upright and the fleas are knocked to the base of the tube. Fleas which remain motionless at the base or move in an uncoordinated manner are considered to be dead or moribund.
100% efficacy means that all the fleas were dead or moribund. 0% efficacy means that no fleas were harmed.

Phaedon cochleariae = Phaedon cochleariae - spray test; format: in vivo; conditions: larvae on Chinese cabbage leaf discs, after 7 days
How it was run: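 Chinese cabbage leaf discs sprayed with compound formulated in acetone/DMF and water containing 1000 ppm emulsifier; once dry, infested with mustard beetle larvae. Efficacy (% larvae killed) scored after 7 days.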

[3] = logP determination by HPLC on a reversed-phase column (C18); format: physicochemical; conditions: for logP^a): HPLC-MS method a); for log P: HPLC-MS; for logP: HPLC, C18 reversed phase, acetonitrile/water with formic acid, EEC Directive 79/831 Annex V.A8
Spodoptera frugiperda = Spodoptera frugiperda - spray test; format: in vivo; conditions: caterpillars on maize leaf discs, after 7 days
How it was run: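 Maize leaf discs sprayed with compound formulated in acetone/DMF and diluted in water containing 1000 ppm alkylaryl polyglycol ether emulsifier, then infested with armyworm caterpillars after drying. Efficacy scored after 7 days as % caterpillars killed (100% all, 0% none).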

Musca domestica = Musca domestica test; format: in vivo; conditions: application rate 100 ppm; adult houseflies; after 2 days
Description: as §1, §2
Vessels containing a sponge treated with sugar solution and the active ingredient formulation of the desired concentration are populated with 10 adult houseflies (Musca domestica).
After 2 days, the kill in % is determined. 100% means that all of the flies have been killed; 0% means that none of the flies have been killed.

Myzus persicae = Myzus persicae - spray test; format: in vivo; conditions: Chinese cabbage leaf discs, after 6 days
Description: Solvent: 78 parts by weight of acetone and 1.5 parts by weight of dimethylformamide
Emulsifier: alkylaryl polyglycol ether
To produce an appropriate active ingredient formulation, 1 part by weight of active ingredient is dissolved using the specified parts by weight of solvent and made up with water containing an emulsifier concentration of 1000 ppm until the desired concentration is attained. To produce further test concentrations, the preparation is diluted with emulsifier-containing water.
Discs of Chinese cabbage leaves (Brassica pekinensis) infested by all stages of the green peach aphid (Myzus persicae) are sprayed with an active ingredient formulation of the desired concentration.
After 6 days, efficacy in % is determined. 100% means that all the aphids have been killed; 0% means that none of the aphids have been killed.

[4] = reversed-phase column (C18), Table I-T3

Structure (SMILES) | efficacy (kill) (Lucilia cuprina) [%] | efficacy (kill) (Ctenocephalides felis [1]) [%] | efficacy (laying of fertile eggs) (Boophilus microplus) [%] | efficacy (Tetranychus urticae; application rate 500 g/ha) [%] | efficacy (Ctenocephalides felis [2]) [%] | efficacy (Phaedon cochleariae; application rate 500 g/ha) [%] | logP^a) [3] | logP^a) [3, 4] | efficacy (Spodoptera frugiperda; application rate 500 g/ha) [%] | efficacy (kill) (Musca domestica) [%] | efficacy (Tetranychus urticae; application rate 100 g/ha) [%] | efficacy (Phaedon cochleariae; application rate 100 g/ha) [%] | efficacy (Spodoptera frugiperda; application rate 100 g/ha) [%] | logP^a) ([3]; reversed-phase column (C18)) | log P [3, 4] | efficacy (Myzus persicae; application rate 500 g/ha) [%] | efficacy (Myzus persicae; application rate 100 g/ha) [%] | logP [3]
Cc1cc(C(F)(C(F)(F)F)C(F)(F)F)cc(C)c1-n1cc(-c2cccc(C(=O)NC3CC3)c2F)cn1 [I-T3-9] | 100 | 100 | 100 | 100 | 100 | 100 | 4.3 | 4.3 | 100 | – | – | – | – | – | – | – | – | –
Cc1cc(C(F)(C(F)(F)F)C(F)(F)F)cc(C)c1-n1cc(-c2cc(C(=O)NC3CC3)ccc2F)cn1 [I-T3-13] | – | 80 | 100 | – | 100 | – | 4.5 | 4.5 | – | – | – | – | – | – | – | – | – | –
Cc1cc(C(F)(C(F)(F)F)C(F)(F)F)cc(C)c1-n1cc(-c2cc(C(=O)NC3(C#N)CC3)c(Cl)cc2F)cn1 [I-T3-17] | 100 | 95 | 100 | – | 100 | 100 | 4.4 | 4.4 | 100 | – | – | – | – | – | – | – | – | –
O=C(NC1CC1)c1cc(-c2cnn(-c3ccc(C(F)(C(F)(F)F)C(F)(F)F)cc3Cl)c2)ccc1Cl [I-T3-31] | 100 | 100 | 100 | 100 | 100 | 100 | 4.3 | 4.3 | 100 | 100 | – | – | – | – | – | – | – | –
Cc1cc(C(F)(C(F)(F)F)C(F)(F)F)cc(C(F)(F)F)c1-n1cc(-c2ccc(Cl)c(C(=O)NCC(F)(F)F)c2)cn1 [I-T3-84] | 100 | 100 | 100 | – | 100 | – | 4.7 | 4.7 | – | 100 | 100 | 100 | 100 | – | – | – | – | –
N#CC1(NC(=O)c2cc(-c3cnn(-c4ccc(OC(F)(F)F)cc4Cl)c3)ccc2Cl)CC1 [I-T3-89] | 100 | 100 | 100 | 90 | – | 100 | 3.5 | 3.5 | 100 | 100 | – | – | – | – | – | – | – | –
O=C(NC1CC1)c1cccc(-c2cnn(-c3ncc(C(F)(F)F)cc3Cl)c2)c1 [I-T3-122] | – | – | – | – | – | – | – | – | – | – | – | – | – | 3.0 | 3.0 | 100 | – | –
CNc1ncc(-c2cnn(-c3c(Cl)cc(C(F)(C(F)(F)F)C(F)(F)F)cc3Cl)c2)cc1C(=O)NC1CC1 [I-T3-136] | 100 | 100 | 100 | – | 100 | – | – | – | – | 100 | – | 100 | 100 | 3.5 | 3.5 | – | – | –
O=C(NC1CC1)c1cc(-c2cnn(-c3c(Cl)cc(C(F)(C(F)(F)F)C(F)(F)F)cc3Cl)c2)cnc1NC1CC1 [I-T3-137] | 80 | 100 | 100 | – | 100 | – | – | – | – | 100 | 90 | 100 | 100 | 3.4 | 3.4 | – | – | –
COCCNc1ncc(-c2cnn(-c3c(Cl)cc(C(F)(C(F)(F)F)C(F)(F)F)cc3Cl)c2)cc1C(=O)NC1CC1 [I-T3-138] | – | – | – | – | 100 | – | – | – | – | – | 90 | 83 | 100 | 4.1 | 4.1 | – | – | –
Cc1cc(C(F)(C(F)(F)F)C(F)(F)F)cc(C)c1-n1cc(-c2cnc(C3CC3)c(C(=O)NC3(C#N)CC3)c2)cn1 [I-T3-139] | 100 | 100 | 100 | – | – | – | – | – | – | 90 | 100 | 100 | 100 | 4.1 | 4.1 | – | – | –
CCNC(=O)c1cc(-c2cnn(-c3c(Cl)cc(C(F)(F)F)cc3Cl)c2)cnc1C [I-T3-147] | – | – | – | – | 100 | – | – | – | – | – | 90 | – | – | 4.0 | 4.0 | – | – | –
N#CC1(NC(=O)c2cc(-c3cnn(-c4ncc(C(F)(C(F)(F)F)C(F)(F)F)cc4Cl)c3)ccc2Cl)CC1 [I-T3-151] | 100 | 100 | 100 | – | – | – | – | – | – | 100 | 90 | 100 | 100 | 4.0 | 4.0 | – | – | –
CCSc1cc(C(F)(F)F)cc(Cl)c1-n1cc(-c2ccc(Cl)c(C(=O)NC3(C#N)CC3)c2)cn1 [I-T3-170] | – | – | – | – | – | – | – | – | – | – | 100 | 100 | 100 | – | 3.7 | – | 100 | –
CC[S+]([O-])c1cc(C(F)(F)F)cc(Cl)c1-n1cc(-c2ccc(Cl)c(C(=O)NC3CC3)c2)cn1 (stereo not shown) [I-T3-179] | – | – | – | – | – | – | – | – | – | – | 100 | 100 | – | – | 3.0 | – | 100 | –
N#CC1(CNC(=O)c2cc(-c3cnn(-c4c(Cl)cc(C(F)(C(F)(F)F)C(F)(F)F)cc4C(F)(F)F)c3)ccc2Cl)CC1 [I-T3-199] | – | – | – | – | 100 | – | – | – | – | – | – | – | – | – | – | – | – | –
Cc1cc(C(F)(C(F)(F)F)C(F)(F)F)cc(C)c1-c1cc(-c2ccc(Cl)c(C(=O)NCC(F)(F)F)c2)on1 [I-T22-3] | 100 | 100 | 100 | – | 100 | – | – | – | – | 100 | 90 | 100 | 100 | – | – | – | – | 5
N#CC1(NC(=O)c2cc(-c3cc(-c4c(Cl)cc(C(F)(C(F)(F)F)C(F)(F)F)cc4Cl)on3)ccc2Cl)CC1 [I-T23-2] | 100 | 100 | 100 | 100 | 100 | 100 | – | – | 100 | 100 | – | – | – | – | – | – | – | 4.8
Cc1cc(C(F)(C(F)(F)F)C(F)(F)F)cc(C)c1-n1ccc(-c2ccc(Cl)c(C(=O)NC3CC3)c2)c1 [I-T46-2] | 100 | 100 | 100 | – | 100 | – | – | – | – | – | – | 100 | 100 | – | – | – | – | 5.0
